In ChEMBL document CHEMBL1201862, “PubChem BioAssay data set” (2004):
The source made the active and inactive calls. Cut-off read from the data, not from the text of the source, for most assays here: actives have a measured EC50 and inactives only a lower limit.

Columns and labels:
Protein RecA = molecular target: T1, Protein RecA (Mycobacterium tuberculosis, UniProt P9WHJ3); assay: Fluorescence Cell-Free Homogeneous Dose Retest to Identify Inhibitors of RecA-Intein Splicing Activity. [Related pubchem assays (depositor defined):AID2097, AID2223, AID489010, AID492950]; type: functional
T1 sequence (P9WHJ3 whole entry): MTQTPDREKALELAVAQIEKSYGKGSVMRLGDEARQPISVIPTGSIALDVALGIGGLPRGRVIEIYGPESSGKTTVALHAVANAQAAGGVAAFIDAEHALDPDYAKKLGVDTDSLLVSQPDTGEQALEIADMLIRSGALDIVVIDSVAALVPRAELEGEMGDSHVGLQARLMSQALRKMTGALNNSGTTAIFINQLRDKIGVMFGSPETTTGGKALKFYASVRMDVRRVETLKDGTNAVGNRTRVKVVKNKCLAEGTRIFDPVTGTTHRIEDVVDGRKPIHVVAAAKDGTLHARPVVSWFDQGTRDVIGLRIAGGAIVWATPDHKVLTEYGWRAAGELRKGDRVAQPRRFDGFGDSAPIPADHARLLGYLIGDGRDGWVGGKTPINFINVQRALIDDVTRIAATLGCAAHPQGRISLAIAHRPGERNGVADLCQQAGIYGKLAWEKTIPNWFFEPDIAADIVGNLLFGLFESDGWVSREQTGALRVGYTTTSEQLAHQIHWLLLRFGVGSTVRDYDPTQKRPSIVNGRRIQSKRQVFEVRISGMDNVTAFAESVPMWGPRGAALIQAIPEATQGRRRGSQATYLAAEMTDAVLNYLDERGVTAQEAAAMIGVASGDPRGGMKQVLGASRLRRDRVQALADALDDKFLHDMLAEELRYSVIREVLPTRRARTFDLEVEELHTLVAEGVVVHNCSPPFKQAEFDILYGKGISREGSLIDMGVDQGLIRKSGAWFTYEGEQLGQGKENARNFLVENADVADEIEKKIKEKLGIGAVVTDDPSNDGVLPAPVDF

A-375 = assay: A375 melanoma cell viability reduction, dose response, counter-screen for MITF modulator project, cherry-pick samples, set 2 (AID 540335); type: functional, cell-based; details: Homo sapiens
[1] = molecular target: T2, Microphthalmia-associated transcription factor (Homo sapiens, UniProt O75030); assay: TRPM1 promoter luciferase signal decrease, dose response, MITF inhibitor project, cell-based, SK-MEL-5, cherry-picked, set 3 (AID 493073); type: functional
T2 sequence (O75030 whole entry): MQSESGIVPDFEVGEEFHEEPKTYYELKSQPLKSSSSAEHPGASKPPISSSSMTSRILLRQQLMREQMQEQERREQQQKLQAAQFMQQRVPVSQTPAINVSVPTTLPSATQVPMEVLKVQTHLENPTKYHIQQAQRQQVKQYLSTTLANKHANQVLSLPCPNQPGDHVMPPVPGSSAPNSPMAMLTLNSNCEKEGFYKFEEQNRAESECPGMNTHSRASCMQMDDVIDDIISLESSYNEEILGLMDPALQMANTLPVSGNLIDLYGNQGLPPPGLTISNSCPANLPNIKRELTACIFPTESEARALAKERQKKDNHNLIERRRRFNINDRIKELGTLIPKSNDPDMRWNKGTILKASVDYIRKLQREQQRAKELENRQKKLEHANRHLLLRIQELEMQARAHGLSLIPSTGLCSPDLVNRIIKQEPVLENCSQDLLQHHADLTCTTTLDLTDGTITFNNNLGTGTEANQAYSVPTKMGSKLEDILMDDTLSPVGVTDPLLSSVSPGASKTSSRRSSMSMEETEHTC

[2] = cytotoxicity toward NIH3T3 fibroblasts, dose response, counter-screen, cell-based, ATP luminescence, mouse fibroblasts (AID 2010); type: functional;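 note: cells exposed to compound for about 90 hours before reading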
[3] = NIH-3T3 fibroblast cytotoxicity, dose response, cytotoxicity control, cell-based, fluorescence, Alamar Blue, secondary assay (AID 2327); type: functional;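 note: NIH-3T3 mouse fibroblasts cultured with fluconazole at 8 µg/mL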
[4] = inhibitors of intracellular T. cruzi replication, confirmation, NIH3T3 host cells, beta-gal luminescence (AID 2044); type: functional, cell-based;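 note: intracellular parasites grown in NIH/3T3 mouse fibroblasts as host cells; luminescent beta-galactosidase reporter signal from transgenic T. cruzi replicating inside host cells; inhibitors lower the luminescence signal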
[5] = C. albicans growth with fluconazole, confirmation, fluorescence, retest (AID 2467); type: functional, cell-based
[6] = molecular target: T3, Replicative DNA helicase DnaB (Mycobacterium tuberculosis, UniProt P9WMR3); assay: DnaB intein splicing inhibitors, dose response, biochemical, cell-free fluorescence (AID 449749); type: functional
T3 sequence (P9WMR3 whole entry): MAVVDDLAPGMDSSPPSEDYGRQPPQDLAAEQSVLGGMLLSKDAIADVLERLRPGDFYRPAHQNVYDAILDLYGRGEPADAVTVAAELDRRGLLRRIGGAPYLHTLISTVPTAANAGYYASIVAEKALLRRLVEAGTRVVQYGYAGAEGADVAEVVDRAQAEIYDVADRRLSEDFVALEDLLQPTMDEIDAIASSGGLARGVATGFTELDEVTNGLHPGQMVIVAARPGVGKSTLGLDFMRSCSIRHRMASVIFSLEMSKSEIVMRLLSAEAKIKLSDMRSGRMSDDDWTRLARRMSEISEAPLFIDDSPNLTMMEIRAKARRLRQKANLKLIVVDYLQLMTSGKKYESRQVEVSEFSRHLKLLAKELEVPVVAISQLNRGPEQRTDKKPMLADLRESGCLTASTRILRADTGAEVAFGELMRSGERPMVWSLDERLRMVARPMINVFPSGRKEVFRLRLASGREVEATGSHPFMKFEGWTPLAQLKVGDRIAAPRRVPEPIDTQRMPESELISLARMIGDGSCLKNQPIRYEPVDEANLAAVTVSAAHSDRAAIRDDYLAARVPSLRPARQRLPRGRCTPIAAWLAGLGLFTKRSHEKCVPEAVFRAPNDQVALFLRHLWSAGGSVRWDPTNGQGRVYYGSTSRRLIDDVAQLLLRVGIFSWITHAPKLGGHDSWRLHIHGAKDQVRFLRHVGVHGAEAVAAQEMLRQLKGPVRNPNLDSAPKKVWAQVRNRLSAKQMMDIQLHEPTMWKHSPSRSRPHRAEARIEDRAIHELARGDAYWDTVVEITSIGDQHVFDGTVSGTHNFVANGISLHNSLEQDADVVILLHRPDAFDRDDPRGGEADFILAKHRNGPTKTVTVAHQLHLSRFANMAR

HEK293 [7] = assay: cells; details: Homo sapiens
HEK293 [8] = assay: cells; details: Homo sapiens; remark: listed apart in the source
[9] = cytotoxicity toward DRD oncogenic fibroblasts, dose response, cell-based, non-viral oncogenic, luminescence (AID 1934); type: functional; details: Homo sapiens
[10] = Luminescence Cell-Based Dose Response HTS to Identify Inhibitors of 5'UTR Stem-Loop Driven Prion Protein mRNA Translation in H4 Neuroglioblastoma Cells. [Related pubchem assays: 1827 (Project Summary), 1813 (Primary HTS)]; type: functional
BJ [11] = assay: cells; type: functional, cell-based; details: Homo sapiens
BJ [12] = assay: cytotoxicity toward BJ-TERT-LT-ST fibroblasts, dose response, cell-based, RAS-independent, luminescence (AID 1935); type: functional; details: Homo sapiens;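 note: BJ fibroblasts immortalized with TERT plus LT and ST oncogenes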
BJ [13] = assay: cytotoxicity toward BJ-TERT fibroblasts, dose response, cell-based, RAS-independent, luminescence (AID 1933); type: functional; details: Homo sapiens
BJ [14] = assay: cytotoxicity toward Ras-transformed BJeLR fibroblasts, dose response, cell-based, alamar blue fluorescence, cherrypicked samples (AID 2631); type: functional; details: Homo sapiens;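 note: confirmatory dose-response assay in RAS-dependent BJ fibroblasts engineered with TERT, LT and ST, with cytotoxicity read by fluorescence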
[15] = inhibitors of firefly luciferase expression or activity, dose response, H4 neuroglioma cells, luminescence (AID 1990); type: functional, cell-based
[16] = cytotoxicity in HEK-293T cells, dose response, cytotoxicity control for TCR NF-kB inhibitor project, luminescence, T-cell screen hits (AID 489026); type: functional, cell-based;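 note: cells exposed to compound about 14 hours before the viability readout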
[17] = inhibitors of SNCA 5'UTR-driven reporter translation, confirmation, H4 neuroglioma cells, luminescence (AID 1988); type: functional, cell-based
[18] = inhibitors of HIV Env-driven cell fusion, dose response, cherry-pick (AID 652057); type: functional, cell-based
[19] = off-target signal loss in HeLa-CEM21 co-culture – HeLa F-luc CTL cells, cherry-picked, counter-screen for HIV-1 Env fusion inhibitor project, dose response (AID 652040); type: functional, cell-based;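 note: potency for signal decrease marking cytotoxic or nonspecific inhibition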
[20] = inhibitors of clade B AD8 Env fusion, dose response, cell-based, cherry-pick (AID 652062); type: functional;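 note: luciferase signal from cell-cell fusion driven by HIV-1 clade B AD8 Env; potency is for inhibitors of fusion seen as a drop in luminescence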
[21] = ZM109 Env clade C HIV-1 fusion inhibitors, dose response, HeLa effector, CEM target cells, luciferase, cherry-pick (AID 652058); type: functional, cell-based

O=C(CCl)N1c2ccccc2CCc2ccccc21
EC50 (Protein RecA): 0.45 µM (active) | AC50 (A-375): 42.7 µM (active) | AC50 [1]: 5.54 µM (active) | EC50 [2]: 4.26 µM (active) | EC50 [3]: 5.37 µM (inconclusive) | EC50 [4]: 2.09 µM (active) | EC50 [5]: 2.36 µM (active) | AC50 [6]: 7.5 µM (active)

Cc1ccc(S(=O)(=O)Cn2nnnc2C(C(C)C)N2CCc3ccccc3C2)cc1 (stereo not given)
EC50 (HEK293 [7]): > 59.6 µM (inactive) | EC50 (HEK293 [8]): > 59.6 µM (inactive)

CC1=CC(C)(C)N(S(=O)(=O)c2ccc(C)cc2)c2cc(C)ccc21
EC50 [9]: 1.95 µM (active) | EC50 [10]: 9.84 µM (active) | EC50 (BJ [11]): 2.65 µM (active) | EC50 (BJ [12]): 1.3 µM (inconclusive) | EC50 (BJ [13]): 1.34 µM (active) | EC50 (BJ [14]): 0.353 µM (active) | EC50 [15]: 4.98 µM (inconclusive) | IC50 [16]: > 80 µM (inactive) | EC50 [17]: 4.44 µM (inconclusive)

C[C@@]12C(=O)N(CCc3c[nH]c4ccccc34)CC(=O)N1[C@H]1c3ccccc3OC[C@@H]1[C@@H]2c1ccccc1
EC50 (HEK293 [7]): > 59.7 µM (inactive) | AC50 [18]: 2.67 µM (active) | AC50 [19]: 3.73 µM (active) | AC50 [20]: 4.46 µM (active) | EC50 (HEK293 [8]): > 59.7 µM (inactive) | AC50 [21]: 2.7 µM (active)
